From PMC10156683, “Male-selective effects of oxytocin agonism on alcohol intake: behavioral assessment in socially housed prairie voles and involvement of RAGE” (Neuropsychopharmacology, 2022)
Counter-ions that a name gives are not always drawn.

Key:
[1] = test system: RAGE; experiment: Involvement of RAGE in brain penetration of d5 OXT: pre-treatment with RAGE antagonist FPS ZM1; format: in vivo, prairie vole (Microtus ochrogaster)
Source text: Following confirmation of the presence of RAGE mRNA and protein in prairie vole brain using RT-PCR and immunohistochemistry as described in the Supplementary Material, we tested whether IN or IP administered OXT penetrates into the brain and whether the RAGE protein is involved in this transport. Adult female and male prairie voles were assigned to control or treatment groups. Animals in the treatment group received the high affinity, BBB-permeant RAGE antagonist FPS ZM1 and control animals received saline 30 min prior to administration of oxytocin-(leucine-5,5,5-d3, glycine-2,2-d2) trifluoroacetate salt (d5 OXT) in saline to all animals. […]
(§1) Alcohol and water intake were calculated for each animal as liquid consumed in grams (adjusted per density of 5% (v/v) ethanol and water) over body weight in kilograms. Alcohol and water drink size were determined by the volume of liquid consumed (ml) per consumption event. Consumptive visits were defined as channel entries during which a consumption event was recorded. […] Cumulative measures were analyzed at hourly intervals for 24 h post-treatment. […]
In 5 (1 control female, 2 control males, 1 pre-treated female and 1 pre-treated male) out of 57 cases levels were above or below 2 standard deviations from the mean and thus removed from analysis. In cases when no d5 OXT was detected, the concentration was entered as zero (17 total). […]

[2] = test system: AVPR1a; conditions: cited from earlier work
Source text: Determining the behavioral and molecular effects of OXT on alcohol consumption is important for translational application and optimization of treatment efficacy. […] Given OXT’s low brain-penetrance and potentially non-specific effects on the related vasopressin receptor AVPR1a, development of an OXTR receptor agonist with a more desirable pharmacokinetic profile could increase the tran ...

[3] = in vivo; set-up: species or system prairie vole (Microtus ochrogaster); conditions: for tissue level at time at 10 min: female
Source text: Following confirmation of the presence of RAGE mRNA and protein in prairie vole brain using RT-PCR and immunohistochemistry as described in the Supplementary Material, we tested whether IN or IP administered OXT penetrates into the brain and whether the RAGE protein is involved in this transport. Adult female and male prairie voles were assigned to control or treatment groups. Animals in the treatment group received the high affinity, BBB-permeant RAGE antagonist FPS ZM1 and control animals received saline 30 min prior to administration of oxytocin-(leucine-5,5,5-d3, glycine-2,2-d2) trifluoroacetate salt (d5 OXT) in saline to all animals. After 10 min, animals were deeply anaesthetized under 4% isoflurane and perfused with heparinized saline. […] Brains were extracted and snap-frozen in isopentane, then stored at −80 °C until prepared for analysis via LC-MS/MS (Supplementary Fig. S2).
OXT acetate salt (Bachem, Torrence, CA, USA) was dissolved in normal saline to doses of 5.0 mg/kg and 10.0 mg/kg (25 µl, IN). LIT-001 was synthesized in the laboratory of Dr. Marcel Hibert. […]
as §1
Adult female and male prairie voles (75- 207d) were assigned to control (n =28; females = 14) or treatment (n = 29; females = 15) groups pseudo-randomly to ensure genetic diversity across groups. Whole brain tissue samples (~650 mg) were homogenized, subjected to protein precipitation and solid-phase extraction, and analyzed for concentrations (pg/mg) of exogenous oxytocin-(leucine-5,5,5-d3, glycine-2,2-d2) trifluoroacetate salt (d5 OXT) using a Shimadzu Nexera-LCMS-8060 (Shimadzu, Kyoto, Japan) liquid chromatograph-triple quadrupole mass spectrometer. […]

[4] = test system: prairie voles; experiment: Continuous-access two-bottle choice (CA-2BC) alcohol drinking in socially housed prairie voles, HM2 cages, mixed-cage design; format: in vivo, prairie vole (Microtus ochrogaster)
Method: For experiments examining the effects of pharmacologically targeting the OXT system on alcohol (and water) consumption, adult female and male prairie voles were given ad libitum access to alcohol in a CA-2BC design for 6 days. […] Fluid consumption was measured before and after treatment (IN OXT or IP LIT-001, or vehicle) using the Herdsman-2 (HM2; MBrose Faaborg, Denmark) cage system. The HM2 system is designed to allow socially housed animals unrestrained access to and interaction with other animals in the cage, while accounting for precise, individualized measures of fluid intake through the combined use of balances and radiofrequency identification (RFID) implants. This cage system has been previously utilized to assess potential pharmacotherapies for AUD in rodents. Further details are provided in the Supplementary Material (Supplementary Fig. S1). Consistent with previous studies, a mixed-cage design (treated and control animals in the same cage) was used.
OXT acetate salt (Bachem, Torrence, CA, USA) was dissolved in normal saline to doses of 5.0 mg/kg and 10.0 mg/kg (25 µl, IN). LIT-001 was synthesized in the laboratory of Dr. Marcel Hibert. It was dissolved in 5% dimethyl sulfoxide in saline and administered at a dose of 10 mg/kg (IP). FPS ZM1 (1 mg/kg, IP; Tocris, Minneapolis, MN, USA) and d5 OXT (3 µg/25 µl, IN or 12 µg/0.1 ml, IP; Sigma-Aldrich, St. Louis, MO, USA) were dissolved in saline. The d5 OXT dose was based on previous assessments of OXT penetrance.
Alcohol and water intake were calculated for each animal as liquid consumed in grams (adjusted per density of 5% (v/v) ethanol and water) over body weight in kilograms. Alcohol and water drink size were determined by the volume of liquid consumed (ml) per consumption event. Consumptive visits were defined as channel entries during which a consumption event was recorded. […] Cumulative measures were analyzed at hourly intervals for 24 h post-treatment. Concentrations of d5 OXT (pg/mg of tissue) were obtained through LC-MS/MS analysis on a Shimadzu Nexera-LCMS-8060 instrument using a previously established method. Data analysis was performed in IBM SPSS Statistics 27 and visualization was performed in Prism 9.3.1. The distribution of many of these measures was not normal. Therefore, non-parametric statistics were applied, including Kruskal–Wallis test and post hoc analyses with Mann–Whitney U-test. While Results below only include p values, detailed statistical analyses are presented in Supplementary Material Table S1.
The Herdsman-2 (HM2) system was used in the experiments measuring alcohol consumption. The HM2 cage system consists of Techniplast 1500U Eurostandard type IV S (48 x 37.5 x 21cm) rodent housing cages equipped with two (11cm) channels (front and back) on one side and stairs specially designed to accommodate prairie voles. Each channel leads to a bottle (one water, one 5% ethanol in water, v/v) below which is a precision balance with a catch tray for spillage- which is automatically deducted from consumption calculations. Breakage of the photobeam at the entrance of the channel triggers the RFID reader to register the animal. A consumption event is initiated when the animal touches the drinking spout and a change of weight of at least 0.02 g is detected; the starting weight is saved and ending weight is registered only after the system receives a stable reading for 5 s. A consumption event is ended 30s after the last touch of the drinking spout, regardless of whether the animal remains in the channel. The system collects a number of measures, including: weight of liquid consumed, number of channel entries and consumptive vs. non-nutritive visits (whether liquid is consumed or not). […]

[5] = cited from earlier work
Source text: Determining the behavioral and molecular effects of OXT on alcohol consumption is important for translational application and optimization of treatment efficacy. […] While a statisti ...

[6] = test system: prairie voles; conditions: both sexes, previous prairie vole study; cited from earlier work
Source text: Importantly, RAGE immunoreactivity was detected in the choroid plexus, hypothalamus and hippocampus, confirming expression in possible locations of central penetration. […] Studies in mice noted that the IN route of administration can result in hi ...

O=C(c1ccc(Cl)cc1)N(Cc1ccccc1)C1CCCCC1 [FPS ZM1]
Effect of antagonist pre-treatment on brain d5 OXT levels after IP d5 OXT (in words) ([1]; female or male prairie voles, FPS ZM1 1 mg/kg IP 30 min before IP d5 OXT, control vs antagonist pre-treated, ps > 0.21): No significant differences
Effect of antagonist pre-treatment on brain d5 OXT levels after IN d5 OXT (in words) ([1]; male prairie voles, FPS ZM1 1 mg/kg IP 30 min before IN d5 OXT, vs vehicle pre-treated controls, p = 0.02): significantly decreased

Cc1cc(C(=O)N2Cc3cnn(C)c3Nc3ccccc32)ccc1CNC(=O)N1CCN(Cc2cc(O)cc(O)c2)CC1 [WAY-267646]
Affinity for the AVPR1a (in words) [2]: moderate affinity

CC[C@H](C)[C@@H]1NC(=O)[C@H](Cc2ccc(O)cc2)NC(=O)[C@@H](N)CSSC[C@@H](C(=O)N2CCC[C@H]2C(=O)N[C@@H](CC(C)C)C(=O)NCC(N)=O)NC(=O)[C@H](CC(N)=O)NC(=O)[C@H](CCC(N)=O)NC1=O [d5 OXT, oxytocin-(leucine-5,5,5-d3, glycine-2,2-d2) trifluoroacetate salt]
tissue level at time at 10 min ([3]; 3 ug): 0.006 ng/g
tissue level at time at 10 min ([3]; ip, 12 ug): 0.05 ng/g
Presence of d5 OXT in brain (in words) ([3]; ip): detected

Oxytocin [OXT]
Water intake or drink size 3 h post-treatment (in words) ([4]; IN OXT 5 and 10 mg/kg, 3 h post-treatment): No effect
Alcohol or water consumptive visits or non-nutritive visits (in words) ([4]; IN OXT 5 and 10 mg/kg, females and males, any time point, p > 0.94): No significant differences
Alcohol intake at 2 h post-treatment (in words) ([4]; both doses of IN OXT (5 and 10 mg/kg), 2 h post-treatment, Kruskal-Wallis p = 0.02): decreased alcohol intake
Effect on alcohol consumption in females (in words) ([4]; female prairie voles, IN OXT 5 and 10 mg/kg): without affecting alcohol consumption
Alcohol intake vs control counterparts (in words) ([4]; male prairie voles, 5 mg/kg and 10 mg/kg IN OXT, 3 h post-treatment, Mann-Whitney p = 0.01 and p = 0.02): lower alcohol intake
Alcohol drink size vs control counterparts (in words) ([4]; male prairie voles, 5 mg/kg and 10 mg/kg IN OXT, 3 h post-treatment, p = 0.01 and p = 0.02): smaller drink sizes
Water intake at 2 h post-treatment (in words) ([4]; male prairie voles, 10 mg/kg IN OXT, 2 h post-treatment, p = 0.04): increased water intake
Bioavailability (in words) [5]: low bioavailability
Metabolic stability (in words) [5]: metabolically unstable
Oral availability (in words) [5]: not orally available
Half-life ([5]; estimated): tens of minutes
Alcohol and water intake after IP OXT (in words) [6]: decreased alcohol and water intake

TC-OT-39
Affinity for the AVPR1a (in words) [2]: moderate affinity
